According to patent US20210261512A1, “NOVEL COMPOUNDS” (INFLAZOME LIMITED, priority 2018, published 2021):
pIC50: −log10 of the molar value.

Assays:
[1] = PK, intravenous administration; format: in vivo; details: rat, plasma, male Sprague Dawley rats, dose about 1 mg/kg; for Vd: read-out: Vdss
Outline: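 Male Sprague Dawley rats (6-9 weeks); IV dosing via tail vein as solution in DMSO:water or DMSO:PBS (10:90), oral dosing in 0.5% methylcellulose after overnight fasting. Plasma sampled at 8 time-points to 24 h; parameters derived from LC-MS/MS data.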

NLRP3 [2] = target: T1, NLRP3 (Homo sapiens, UniProt Q96P20); assay: THP-1 cells pyroptosis assay; format: cell-based; parameters: Seed THP-1 cells (25,000 cells/well) containing 1.0 μg/ml LPS; host or cells: THP-1; details: LPS 1.0 μg/ml, nigericin 5 μM, resazurin readout, 10 μM top dose (Example 2: top dose of 30 μM)
T1 sequence (Q96P20 whole entry): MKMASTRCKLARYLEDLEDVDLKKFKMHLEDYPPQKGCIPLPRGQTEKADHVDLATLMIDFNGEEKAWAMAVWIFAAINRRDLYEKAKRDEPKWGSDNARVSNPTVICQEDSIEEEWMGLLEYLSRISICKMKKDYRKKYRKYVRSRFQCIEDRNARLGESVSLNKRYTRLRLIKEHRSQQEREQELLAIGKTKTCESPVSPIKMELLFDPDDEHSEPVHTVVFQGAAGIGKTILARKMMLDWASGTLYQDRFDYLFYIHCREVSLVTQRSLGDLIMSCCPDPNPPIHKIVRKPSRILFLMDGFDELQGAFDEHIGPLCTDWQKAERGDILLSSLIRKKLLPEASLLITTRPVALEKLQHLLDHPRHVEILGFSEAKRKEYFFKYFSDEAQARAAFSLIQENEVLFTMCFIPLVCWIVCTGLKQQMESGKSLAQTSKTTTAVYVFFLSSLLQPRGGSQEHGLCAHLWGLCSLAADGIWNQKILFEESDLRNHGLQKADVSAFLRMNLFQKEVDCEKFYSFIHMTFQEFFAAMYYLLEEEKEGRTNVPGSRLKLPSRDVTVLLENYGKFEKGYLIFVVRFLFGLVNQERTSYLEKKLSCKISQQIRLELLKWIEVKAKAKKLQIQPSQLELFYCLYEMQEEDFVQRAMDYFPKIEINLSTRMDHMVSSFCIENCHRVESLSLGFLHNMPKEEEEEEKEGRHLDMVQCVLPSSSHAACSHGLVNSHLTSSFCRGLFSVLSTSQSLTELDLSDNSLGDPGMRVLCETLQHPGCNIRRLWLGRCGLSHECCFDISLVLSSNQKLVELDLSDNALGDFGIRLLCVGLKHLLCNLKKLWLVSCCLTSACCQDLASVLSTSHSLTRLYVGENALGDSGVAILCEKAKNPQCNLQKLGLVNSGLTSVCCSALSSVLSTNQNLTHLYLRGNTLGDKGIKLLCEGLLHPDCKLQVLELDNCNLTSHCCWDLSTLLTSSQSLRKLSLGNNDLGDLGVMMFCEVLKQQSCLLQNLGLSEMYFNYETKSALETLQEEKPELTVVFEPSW
Outline: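 Pyroptosis induced by 5 μM nigericin (1 h) in LPS-primed (1 μg/ml) THP-1 cells, 25,000/well in serum-free RPMI, after 3 h compound pre-treatment (8 points, 10 μM top unless stated). Surviving cells measured with 100 μM resazurin, Ex 560/Em 590; IC50 via variable-slope 4-parameter regression.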

NLRP3 [3] = target: T1, NLRP3; assay: Human whole blood IL1β release assay; format: cell-based; details: LPS 1 μg/ml, nigericin 10 μM, IL-1β AlphaLisa, 10 μM top dose (Example 2: top dose of 30 μM), read-out: HWB IC50
Outline: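 Healthy-donor heparinised human whole blood with 1 μg/ml LPS, compound (8-point half-log dilution, 10 μM top dose unless stated; 0.1% DMSO vehicle) for 3 h at 37 °C, then nigericin 10 μM final for 1 h. Supernatant IL-1β by AlphaLISA; IC50 from 4-parameter variable-slope fit.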

Compound	AUC [1] [ng·h/mL]	clearance [1] [mL/min/kg]	half-life [1] [min]	Vd [1] [L/kg]	pIC50 (NLRP3 [2])	pIC50 (NLRP3 [3])
CS(=O)(=O)c1nnc(Nc2c3c(cc4c2CCC4)CCC3)[nH]1 [Example 75, N-(1,2,3,5,6,7-hexahydro-s-indacen-4-yl)-5-(methylsulfonyl)-4H-1,2,4-triazol-3-amine]	1000	16.7	30	0.56	≥ 5.30	≥ 5.00
CNCCCS(=O)(=O)c1nnc(Nc2c3c(cc4c2CCC4)CCC3)[nH]1 [Example 54, N-(1,2,3,5,6,7-hexahydro-s-indacen-4-yl)-5-((3-(methylamino)propyl)sulfonyl)-4H-1,2,4-triazol-3-amine]	273	61.1	78	2.7	≥ 6.00	≥ 5.00
O=S(=O)(CCCN1CCCC1)c1nnc(Nc2c3c(cc4c2CCC4)CCC3)[nH]1 [Example 49, N-(1,2,3,5,6,7-hexahydro-s-indacen-4-yl)-5-((3-(pyrrolidin-1-yl)propyl)sulfonyl)-4H-1,2,4-triazol-3-amine]	168	98.9	126	8.08	≥ 6.30	≥ 6.00
CN1CCC2(C1)CN(S(=O)(=O)c1nnc(Nc3c4c(cc5c3CCC5)CCC4)[nH]1)C2 [Example 274, N-(1,2,3,5,6,7-hexahydro-s-indacen-4-yl)-5-((6-methyl-2,6-diazaspiro[3.4]octan-2-yl)sulfonyl)-4H-1,2,4-triazol-3-amine]	271	61.6	98.4	6.2	≥ 6.30	≥ 6.30
CN(C)CCNS(=O)(=O)c1nnc(Nc2c3c(cc4c2CCC4)CCC3)[nH]1 [Example 94, N-(2-(dimethylamino)ethyl)-5-((1,2,3,5,6,7-hexahydro-s-indacen-4-yl)amino)-4H-1,2,4-triazole-3-sulfonamide]	354	47.1	78	3.21	≥ 6.00	≥ 6.00
COc1cc(-c2cc(F)cc(C(C)C)c2Cc2nnc(S(=O)(=O)N3CCC(CN(C)C)C3)[nH]2)ccn1 (stereo not drawn) [Example 156, 1-(1-((5-(4-fluoro-2-isopropyl-6-(2-methoxypyridin-4-yl)benzyl)-4H-1,2,4-triazol-3-yl)sulfonyl)pyrrolidin-3-yl)-N,N-dimethylmethanamine]	193	103	24	2.95	≥ 6.00	≥ 5.30
CC(C)c1cc(F)cc(C(C)C)c1Nc1nnc(S(=O)(=O)N2CCC3(CCCN3C)CC2)[nH]1 [Example 247, N-(4-fluoro-2,6-diisopropylphenyl)-5-((i-methyl-1,8-diazaspiro[4.5]decan-8-yl)sulfonyl)-4H-1,2,4-triazol-3-amine]	253	72.5	163	12.7	≥ 6.30	≥ 6.30
CC(C)N1CCC2(C1)CN(S(=O)(=O)c1nnc(Nc3c4c(cc5c3CCC5)CCC4)[nH]1)C2 [Example 264, N-(1,2,3,5,6,7-hexahydro-s-indacen-4-yl)-5-((6-isopropyl-2,6-diazaspiro[3.4]octan-2-yl)sulfonyl)-4H-1,2,4-triazol-3-amine]	280	59.6	113	5.78	≥ 6.30	≥ 6.30

The remaining lines, values ahead:

AUC [1] [ng·h/mL]	clearance [1] [mL/min/kg]	half-life [1] [min]	Vd [1] [L/kg]	pIC50 (NLRP3 [2])	pIC50 (NLRP3 [3])	Compound
235	70.8	159	10.6	≥ 6.30	≥ 5.30	CN(C)C1CCN(S(=O)(=O)c2nnc(Nc3c4c(c(Cl)c5c3CCC5)CCC4)[nH]2)CC1 [Example 300, 1-((5-((8-chloro-1,2,3,5,6,7-hexahydro-s-indacen-4-yl)amino)-1H-1,2,4-triazol-3-yl)sulfonyl)-N,N-dimethylpiperidin-4-amine]
169	90.1	134	9.57	≥ 6.30	≥ 6.00	COc1cc(-c2cc(F)cc(C(C)C)c2Nc2nnc(S(=O)(=O)N3CCC(CN(C)C)C3)[nH]2)ccn1 (stereo not drawn) [Example 259, 5-((3-((dimethylamino)methyl)pyrrolidin-1-yl)sulfonyl)-N-(4-fluoro-2-isopropyl-6-(2-methoxypyridin-4-yl)phenyl)-4H-1,2,4-triazol-3-amine]
278	59.9	90	4.61	≥ 6.30	≥ 6.00	CCN(CC)CCNS(=O)(=O)c1nnc(Nc2c3c(cc4c2CCC4)CCC3)[nH]1 [Example 81, N-(2-(diethylamino)ethyl)-5-((1,2,3,5,6,7-hexahydro-s-indacen-4-yl)amino)-4H-1,2,4-triazole-3-sulfonamide]
393	49.6	44.4	1.63	≥ 6.30	≥ 5.30	O=S(=O)(c1nnc(Nc2c3c(cc4c2CCC4)CCC3)[nH]1)N1CC2(CCN(C3CC3)C2)C1 [Example 245, 5-((6-cyclopropyl-2,6-diazaspiro[3.4]octan-2-yl)sulfonyl)-N-(1,2,3,5,6,7-hexahydro-s-indacen-4-yl)-4H-1,2,4-triazol-3-amine]
392	55.2	15.6	0.6	≥ 6.30	≥ 5.30	COc1cc(-c2cc(F)cc(C(C)C)c2Oc2nnc(S(=O)(=O)N3CC4(CCN(C)C4)C3)[nH]2)ccn1 [Example 250, 2-((5-(4-fluoro-2-isopropyl-6-(2-methoxypyridin-4-yl)phenoxy)-4H-1,2,4-triazol-3-yl)sulfonyl)-6-methyl-2,6-diazaspiro[3.4]octane]
58	121	31.2	2.86	≥ 6.30	≥ 6.30	COc1cc(-c2ccc3c(c2Nc2nnc(S(=O)(=O)N4CC5(CCN(C)C5)C4)[nH]2)CCC3)ccn1 [Example 215, N-(5-(2-methoxypyridin-4-yl)-2,3-dihydro-1H-inden-4-yl)-5-((6-methyl-2,6-diazaspiro[3.4]octan-2-yl)sulfonyl)-4H-1,2,4-triazol-3-amine]
278	60	108	5.9	≥ 6.30	≥ 6.30	CN1CCCC12CCN(S(=O)(=O)c1nnc(Nc3c4c(cc5c3CCC5)CCC4)[nH]1)CC2 [Example 278, N-(1,2,3,5,6,7-hexahydro-s-indacen-4-yl)-5-((1-methyl-1,8-diazaspiro[4.5]decan-8-yl)sulfonyl)-4H-1,2,4-triazol-3-amine]
196	85	48	3.69	≥ 6.30	≥ 6.30	CN(C)CCCS(=O)(=O)c1nnc(Nc2c3c(cc4c2CCC4)CCC3)[nH]1 [Example 48, 5-((3-(Dimethylamino)propyl)sulfonyl)-N-(1,2,3,5,6,7-hexahydro-s-indacen-4-yl)-4H-1,2,4-triazol-3-amine]
